Data taken from ChEMBL document CHEMBL1201862, “PubChem BioAssay data set” (2004).
The source made the active and inactive calls.

Tests used:
Trypsin = Trypsin (Sus scrofa, UniProt P00761); test: trypsin protease activity blockade – biochemical, quenched peptide fluorescence, cherry-pick, selectivity assay for Rce1 protease inhibitor project, dose response (AID 488789)
CAAX prenyl protease 2 = CAAX prenyl protease 2 (Saccharomyces cerevisiae S288c, UniProt Q03530); assay type: biochemical
CAAX prenyl protease 1 = CAAX prenyl protease 1 (Saccharomyces cerevisiae S288c, UniProt P47154); test: yeast CAAX protease Ste24 inhibition – biochemical, S. cerevisiae, plate reader, cherry-pick, dose response (AID 488815)
[1] = molecular target: T1, Delta-type opioid receptor (Homo sapiens, UniProt P41143); test: HTS Image-Based Screen for Antagonists of the DOR Receptor. [Related pubchem assays (depositor defined):AID1777, AID1785, AID1786, AID2133]; assay type: functional
Mu-type opioid receptor [2] = molecular target: T2, Mu-type opioid receptor (Homo sapiens, UniProt P35372); test: HTS Image-Based Screen for Agonists of the MOR Receptor. [Related pubchem assays (depositor defined):AID1777, AID1785, AID1786, AID2133]; assay type: functional
[3] = molecular target: T1, Delta-type opioid receptor; test: HTS Image-Based Screen for Agonists of the DOR Receptor. [Related pubchem assays (depositor defined):AID1777, AID1786, AID2133]; assay type: functional
[4] = molecular target: T3, Kappa-type opioid receptor (Homo sapiens, UniProt P41145); assay type: functional
[5] = molecular target: T3, Kappa-type opioid receptor; assay type: functional; remark: listed apart in the source
[6] = molecular target: T3, Kappa-type opioid receptor; test: SAR analysis of small molecule agonists of the kappa opioid receptor via a luminescent beta-arrestin assay. [Related pubchem assays (depositor defined):AID1777, AID1786, AID1966, AID2133, AID2136, AID2348, AID2352, AID2357, AID2359, AID2370, AID2420, AID2478, AID2491, AID2492, AID2493, AID2497, AID2498, AID2500, AID449737, AID488822, AID488842]; assay type: functional
Mu-type opioid receptor [7] = molecular target: T2, Mu-type opioid receptor; test: mu opioid receptor activators, image-based, SAR follow-up (AID 2352); assay type: functional
[8] = molecular target: T1, Delta-type opioid receptor; test: DOR agonists, SAR follow-up, image-based (AID 2370); assay type: functional
[9] = molecular target: T3, Kappa-type opioid receptor; test: kappa opioid receptor blockers, image-based, SAR follow-up (AID 2348); assay type: functional
Mu-type opioid receptor [10] = molecular target: T2, Mu-type opioid receptor; test: mu opioid receptor blockers – image-based, SAR follow-up (AID 2420); assay type: functional;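 also: compounds added before stimulation of receptor with agonist DAMGO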
[11] = molecular target: T3, Kappa-type opioid receptor; test: SAR analysis of small molecule agonists of the kappa opioid receptor via a luminescent beta-arrestin assay - Set 3. [Related pubchem assays (depositor defined):AID1777, AID1785, AID1786, AID1966, AID2133, AID2136, AID2284, AID2500]; assay type: functional
[12] = molecular target: T1, Delta-type opioid receptor; test: delta opioid receptor blockers – image-based, SAR follow-up (AID 2357); assay type: functional
Escherichia coli = test: microbe, parasite or virus in culture
[13] = decrease of insulin promoter-GFP reporter – imaging, high-content screening, mouse beta cells (AID 1628); assay type: functional; conditions: MIN6
[14] = MIN6 cell viability loss – mouse insulinoma, cytotoxicity control, dose response (AID 2122); assay type: functional;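 also: confirmatory high-throughput counterscreen run to flag cytotoxic compounds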

T3 sequence (P41145 whole entry): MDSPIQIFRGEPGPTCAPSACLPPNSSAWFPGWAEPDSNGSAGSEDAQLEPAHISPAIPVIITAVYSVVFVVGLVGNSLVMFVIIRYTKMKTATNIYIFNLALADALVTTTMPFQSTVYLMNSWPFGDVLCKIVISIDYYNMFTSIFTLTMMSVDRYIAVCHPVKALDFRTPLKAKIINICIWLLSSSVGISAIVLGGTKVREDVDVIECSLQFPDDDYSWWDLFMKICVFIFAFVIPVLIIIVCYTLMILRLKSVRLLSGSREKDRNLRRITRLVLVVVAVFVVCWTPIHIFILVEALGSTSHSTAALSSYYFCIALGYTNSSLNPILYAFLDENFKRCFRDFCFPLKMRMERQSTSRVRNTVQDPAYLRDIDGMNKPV
T1 sequence (P41143 whole entry): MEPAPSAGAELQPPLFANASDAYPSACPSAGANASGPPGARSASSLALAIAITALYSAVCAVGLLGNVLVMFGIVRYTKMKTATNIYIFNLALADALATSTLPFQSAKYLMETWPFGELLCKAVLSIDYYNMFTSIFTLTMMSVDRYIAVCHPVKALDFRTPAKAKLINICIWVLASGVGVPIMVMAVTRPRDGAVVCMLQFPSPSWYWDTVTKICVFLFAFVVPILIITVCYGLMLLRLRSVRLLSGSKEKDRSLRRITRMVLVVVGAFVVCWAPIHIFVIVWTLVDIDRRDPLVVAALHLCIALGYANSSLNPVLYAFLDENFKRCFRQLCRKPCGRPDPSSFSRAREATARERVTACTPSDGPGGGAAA
T2 sequence (P35372 whole entry): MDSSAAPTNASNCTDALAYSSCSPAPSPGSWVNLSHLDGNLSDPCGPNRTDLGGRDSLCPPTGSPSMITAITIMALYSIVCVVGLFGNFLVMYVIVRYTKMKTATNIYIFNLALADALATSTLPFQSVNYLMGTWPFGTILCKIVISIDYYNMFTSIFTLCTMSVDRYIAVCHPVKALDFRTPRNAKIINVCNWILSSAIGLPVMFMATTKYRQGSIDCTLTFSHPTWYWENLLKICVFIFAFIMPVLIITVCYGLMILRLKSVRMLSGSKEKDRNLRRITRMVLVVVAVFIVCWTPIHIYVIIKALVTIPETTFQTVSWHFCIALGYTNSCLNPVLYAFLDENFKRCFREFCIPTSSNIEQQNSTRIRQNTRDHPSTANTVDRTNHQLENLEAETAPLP
Chain of CAAX prenyl protease 1 (P47154 whole entry): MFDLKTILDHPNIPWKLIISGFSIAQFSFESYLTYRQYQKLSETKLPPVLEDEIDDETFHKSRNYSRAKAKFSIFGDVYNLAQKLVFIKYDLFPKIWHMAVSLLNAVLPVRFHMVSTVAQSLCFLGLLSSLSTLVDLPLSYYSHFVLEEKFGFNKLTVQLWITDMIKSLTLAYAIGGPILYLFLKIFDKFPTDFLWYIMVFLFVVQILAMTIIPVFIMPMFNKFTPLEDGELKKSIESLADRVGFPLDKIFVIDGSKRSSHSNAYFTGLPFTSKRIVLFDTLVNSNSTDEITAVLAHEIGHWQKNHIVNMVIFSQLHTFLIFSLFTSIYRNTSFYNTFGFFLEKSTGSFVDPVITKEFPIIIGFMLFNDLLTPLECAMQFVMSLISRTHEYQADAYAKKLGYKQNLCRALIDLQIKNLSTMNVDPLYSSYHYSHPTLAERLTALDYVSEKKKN
Chain of Trypsin (P00761 whole entry): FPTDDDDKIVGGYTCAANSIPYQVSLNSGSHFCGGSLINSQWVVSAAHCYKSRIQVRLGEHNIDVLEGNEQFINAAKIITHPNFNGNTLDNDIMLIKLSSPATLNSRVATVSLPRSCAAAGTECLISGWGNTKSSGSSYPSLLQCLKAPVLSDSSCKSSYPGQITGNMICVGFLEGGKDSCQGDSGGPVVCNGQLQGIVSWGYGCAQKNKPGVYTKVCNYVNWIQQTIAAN
Chain of CAAX prenyl protease 2 (Q03530 whole entry): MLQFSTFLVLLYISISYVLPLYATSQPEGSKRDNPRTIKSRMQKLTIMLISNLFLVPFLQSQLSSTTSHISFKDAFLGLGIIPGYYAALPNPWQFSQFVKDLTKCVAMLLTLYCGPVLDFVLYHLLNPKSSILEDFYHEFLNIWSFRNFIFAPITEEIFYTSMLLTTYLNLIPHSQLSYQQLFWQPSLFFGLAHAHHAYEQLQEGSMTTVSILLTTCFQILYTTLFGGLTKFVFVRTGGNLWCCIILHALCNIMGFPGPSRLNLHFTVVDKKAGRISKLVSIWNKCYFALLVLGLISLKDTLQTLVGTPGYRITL

CCCCN1C(=O)/C(=C/Nc2cccnc2Cl)C(=O)N(CCCCl)C1=O
AC50 (Trypsin): 47.1 µM (active)
AC50 (CAAX prenyl protease 2): 40.4 µM (active)
AC50 (CAAX prenyl protease 1): 7.88 µM (active)

CCCCN(Cc1cc2cc(C)ccc2[nH]c1=O)C(=O)c1ccccn1
IC50 [1]: > 32 µM (inactive)
EC50 (Mu-type opioid receptor [2]): > 32 µM (inactive)
EC50 [3]: > 32 µM (inactive)
EC50 [4]: 4.95 µM
EC50 [5]: 4.84 µM
EC50 [6]: 7.69 µM (active)
EC50 (Mu-type opioid receptor [7]): > 32 µM (inactive)
EC50 [8]: > 32 µM (inactive)
IC50 [9]: > 32 µM (inactive)
IC50 (Mu-type opioid receptor [10]): > 32 µM (inactive)
EC50 [11]: 8.38 µM (active)
IC50 [12]: > 32 µM (inactive)

COc1cc(SC)ccc1C(=O)Nc1cc(C)ccn1
AC50 (Escherichia coli): 31.5 µM (active)

N=c1ccn(Cc2ccc(Cl)c(Cl)c2)cc1
IC50 [13]: 3.32 µM (active)
IC50 [14]: 4.07 µM (active)
